Measurements reported in US20240270703A1, “HERBICIDAL COMPOUNDS” (SYNGENTA CROP PROTECTION AG, priority 2021, published 2024).

Assays:
Assay type in all cases: in vivo
[1] = test system: Amaranthus retroflexus (AMARE); test: Herbicidal glasshouse test, POST application; settings: 130 g/ha; evaluated after 14 days; 100=total damage to plant, 0=no damage to plant
[2] = test system: Abutilon theophrasti (ABUTH); test: Herbicidal glasshouse test, POST application; settings: 130 g/ha; evaluated after 14 days; 100=total damage to plant, 0=no damage to plant
Setaria faberi (SETFA) [3] = test: Herbicidal glasshouse test, POST application; settings: 130 g/ha; evaluated after 14 days; 100=total damage to plant, 0=no damage to plant
Zea mays (ZEAMX) [4] = test: Herbicidal glasshouse test, PRE application (crop damage); settings: 130 g/ha; evaluated after 14 days; 100=total damage to plant, 0=no damage to plant; maize crop
Experimental: (§1) Seeds of a variety of test species are sown in standard soil in pots (Lolium perenne (LOLPE), Amaranthus retroflexus (AMARE), Abutilon theophrasti (ABUTH), Setaria faberi (SETFA), Echinochloa crus-galli (ECHCG), Zea mays (ZEAMX)). After cultivation for one day under controlled conditions in a glasshouse (at 24/16° C., day/night; 14 hours light; 65% humidity), the plants were sprayed with an aqueous spray solution derived from the formulation of the technical active ingredient in 0.6 ml acetone and 45 ml formulation solution containing 10.6% Emulsogen EL (Registry number 61791-12-6), 42.2% N-methyl pyrrolidone, 42.2% dipropylene glycol monomethyl ether (CAS RN 34590-94-8) and 0.2% X-77 (CAS RN 11097-66-8).
(§2) The test plants were then grown in a glasshouse under controlled conditions in a glasshouse (at 24/16° C., day/night; 14 hours light; 65% humidity) and watered twice daily. After 14 days, the test was evaluated (100=total damage to plant; 0=no damage to plant, NC=data not captured). The compounds were applied at 130 g/ha unless otherwise stated.

[5] = test system: Echinochloa crus-galli (ECHCG); test: Herbicidal glasshouse test, PRE application; settings: 130 g/ha; evaluated after 14 days; 100=total damage to plant, 0=no damage to plant
Experimental: as §1, §2

Setaria faberi (SETFA) [6] = test: Herbicidal glasshouse test, PRE application; settings: 130 g/ha; evaluated after 14 days; 100=total damage to plant, 0=no damage to plant
Experimental: as §1, §2

[7] = test system: Abutilon theophrasti (ABUTH); test: Herbicidal glasshouse test, PRE application; settings: 130 g/ha; evaluated after 14 days; 100=total damage to plant, 0=no damage to plant
Experimental: as §1, §2

[8] = test system: Amaranthus retroflexus (AMARE); test: Herbicidal glasshouse test, PRE application; settings: 130 g/ha; evaluated after 14 days; 100=total damage to plant, 0=no damage to plant
Experimental: as §1, §2

Zea mays (ZEAMX) [9] = test: Herbicidal glasshouse test, POST application (crop damage); settings: 130 g/ha; evaluated after 14 days; 100=total damage to plant, 0=no damage to plant; maize crop
[10] = test system: Echinochloa crus-galli (ECHCG); test: Herbicidal glasshouse test, POST application; settings: 130 g/ha; evaluated after 14 days; 100=total damage to plant, 0=no damage to plant

## Cn1nnnc1NC(=O)c1ccc(OC(F)(F)F)c(S(=O)(=O)NCC2CC2)c1Cl [Compound 1.001]
[1]
  damage to plant, AMARE, POST Application: 100
[2]
  damage to plant, ABUTH, POST Application: 80
Setaria faberi (SETFA) [3]
  damage to plant, SETFA, POST Application: 20
Zea mays (ZEAMX) [4]
  damage to plant, ZEAMX, PRE Application: 0
[5]
  damage to plant, ECHCG, PRE Application: 20
Setaria faberi (SETFA) [6]
  damage to plant, SETFA, PRE Application: 0
[7]
  damage to plant, ABUTH, PRE Application: 100
[8]
  damage to plant, AMARE, PRE Application: 100
Zea mays (ZEAMX) [9]
  damage to plant, ZEAMX, POST Application: 0
[10]
  damage to plant, ECHCG, POST Application: 60

## CCNS(=O)(=O)c1c(OC(F)(F)F)ccc(C(=O)Nc2nnnn2C)c1Cl [Compound 1.002, 2-chloro-3-(ethylsulfamoyl)-N-(1-methyltetrazol-5-yl)-4-(trifluoromethoxy)benzamide]
[1]
  damage to plant, AMARE, POST Application: 100
[2]
  damage to plant, ABUTH, POST Application: 90
Setaria faberi (SETFA) [3]
  damage to plant, SETFA, POST Application: 70
Zea mays (ZEAMX) [4]
  damage to plant, ZEAMX, PRE Application: 0
[5]
  damage to plant, ECHCG, PRE Application: 10
Setaria faberi (SETFA) [6]
  damage to plant, SETFA, PRE Application: 0
[7]
  damage to plant, ABUTH, PRE Application: 80
[8]
  damage to plant, AMARE, PRE Application: 100
Zea mays (ZEAMX) [9]
  damage to plant, ZEAMX, POST Application: 0
[10]
  damage to plant, ECHCG, POST Application: 90

## CN(C)S(=O)(=O)c1c(OC(F)(F)F)ccc(C(=O)Nc2nnnn2C)c1Cl [Compound 1.003]
[1]
  damage to plant, AMARE, POST Application: 100
[2]
  damage to plant, ABUTH, POST Application: 100
Setaria faberi (SETFA) [3]
  damage to plant, SETFA, POST Application: 100
Zea mays (ZEAMX) [4]
  damage to plant, ZEAMX, PRE Application: 0
[5]
  damage to plant, ECHCG, PRE Application: 70
Setaria faberi (SETFA) [6]
  damage to plant, SETFA, PRE Application: 0
[7]
  damage to plant, ABUTH, PRE Application: 90
[8]
  damage to plant, AMARE, PRE Application: 90
Zea mays (ZEAMX) [9]
  damage to plant, ZEAMX, POST Application: 0
[10]
  damage to plant, ECHCG, POST Application: 100

## CNS(=O)(=O)c1c(OC(F)(F)F)ccc(C(=O)Nc2nnnn2C)c1Cl [Compound 1.004]
[1]
  damage to plant, AMARE, POST Application: 80
[2]
  damage to plant, ABUTH, POST Application: 80
Setaria faberi (SETFA) [3]
  damage to plant, SETFA, POST Application: 80
Zea mays (ZEAMX) [4]
  damage to plant, ZEAMX, PRE Application: 0
[5]
  damage to plant, ECHCG, PRE Application: 90
Setaria faberi (SETFA) [6]
  damage to plant, SETFA, PRE Application: 90
[7]
  damage to plant, ABUTH, PRE Application: 100
[8]
  damage to plant, AMARE, PRE Application: 100
Zea mays (ZEAMX) [9]
  damage to plant, ZEAMX, POST Application: 10
[10]
  damage to plant, ECHCG, POST Application: 80

## CN(C)S(=O)(=O)c1c(OC(F)F)ccc(C(=O)Nc2nnnn2C)c1Cl [Compound 1.009]
[1]
  damage to plant, AMARE, POST Application: 100
Setaria faberi (SETFA) [3]
  damage to plant, SETFA, POST Application: 90
Zea mays (ZEAMX) [4]
  damage to plant, ZEAMX, PRE Application: 10
[5]
  damage to plant, ECHCG, PRE Application: 100
Setaria faberi (SETFA) [6]
  damage to plant, SETFA, PRE Application: 100
[8]
  damage to plant, AMARE, PRE Application: 100
Zea mays (ZEAMX) [9]
  damage to plant, ZEAMX, POST Application: 10
[10]
  damage to plant, ECHCG, POST Application: 90

## CCN(C)S(=O)(=O)c1c(OC(F)F)ccc(C(=O)Nc2nnnn2C)c1Cl [Compound 1.010]
[1]
  damage to plant, AMARE, POST Application: 100
Setaria faberi (SETFA) [3]
  damage to plant, SETFA, POST Application: 90
Zea mays (ZEAMX) [4]
  damage to plant, ZEAMX, PRE Application: 10
[5]
  damage to plant, ECHCG, PRE Application: 100
Setaria faberi (SETFA) [6]
  damage to plant, SETFA, PRE Application: 100
[8]
  damage to plant, AMARE, PRE Application: 100
Zea mays (ZEAMX) [9]
  damage to plant, ZEAMX, POST Application: 10
[10]
  damage to plant, ECHCG, POST Application: 100
